Reference: patent publication US10590113B2, “6-hydroxy-4-oxo-1,4-dihydropyrimidine-5-carboxamides as APJ agonists” (priority 2016, dated 2020)

biological target: T1, human APJ receptor (Homo sapiens, UniProt P35414); assay: Intracellular cAMP Accumulation Assay (APJ hcAMP, HTRF); type: cell-based; settings: human APJ, cAMP accumulation; potency range class; read-out: hAPJ cAMP EC50 Potency range
T1 construct: expressed in transfected cells; host or cells: HEK293
T1 sequence (P35414 1-380): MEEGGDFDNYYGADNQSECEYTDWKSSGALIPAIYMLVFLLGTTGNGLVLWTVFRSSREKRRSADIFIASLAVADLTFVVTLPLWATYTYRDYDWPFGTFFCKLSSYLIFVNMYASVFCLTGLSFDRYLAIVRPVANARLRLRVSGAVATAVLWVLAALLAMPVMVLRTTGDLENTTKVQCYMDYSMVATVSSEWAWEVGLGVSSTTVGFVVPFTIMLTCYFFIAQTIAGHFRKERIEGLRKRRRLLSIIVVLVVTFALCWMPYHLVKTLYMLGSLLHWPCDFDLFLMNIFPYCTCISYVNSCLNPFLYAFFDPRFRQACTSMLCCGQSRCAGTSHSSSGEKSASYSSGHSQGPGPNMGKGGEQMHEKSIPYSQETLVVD
Outline: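 Stably transfected HEK293 cells (5,000/well) incubated 30 min at room temperature with serially diluted compound, […] and 2 μM forskolin. cAMP measured by HTRF after 60 min with detection reagents, quantified against a cAMP standard curve; EC50 from variable-slope sigmoidal fit of inhibition of forskolin-stimulated cAMP.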

Structure (SMILES)	EC50 [nM]
COc1cccc(OC)c1-n1c(-c2ccc(F)cc2)nc(=O)c(C(=O)N2CCC(c3ccncc3)C2)c1O (single isomer, unassigned) [Example 224, 1-(2,6-dimethoxyphenyl)-2-(4-fluorophenyl)-6-hydroxy-5-[3-(pyridin-4-yl)pyrrolidine-1-carbonyl]-1,4-dihydropyrimidin-4-one]	10 to 100
COc1cccc(OC)c1-n1c(CC2CC2)nc(=O)c(C(=O)N2CCC(c3ccccc3F)C2)c1O (single isomer, unassigned) [Example 226, 2-(cyclopropylmethyl)-1-(2,6-dimethoxyphenyl)-5-[3-(2-fluorophenyl)pyrrolidine-1-carbonyl]-6-hydroxy-1,4-dihydropyrimidin-4-one]	0.01 to 10
COc1cccc(OC)c1-n1c(-c2ccc(F)cc2)nc(=O)c(C(=O)N2CCC(c3ccccc3Cl)C2)c1O (single isomer, unassigned) [Example 229, 5-[3-(2-chlorophenyl)pyrrolidine-1-carbonyl]-1-(2,6-dimethoxyphenyl)-2-(4-fluorophenyl)-6-hydroxy-1,4-dihydropyrimidin-4-one]	0.01 to 10
COc1cccc(OC)c1-n1c(-c2cncc(C)c2)nc(=O)c(C(=O)N2CCC(c3ccc(F)cc3)C2)c1O (single isomer, unassigned) [Example 232, 1-(2,6-dimethoxyphenyl)-5-[3-(4-fluorophenyl)pyrrolidine-1-carbonyl]-6-hydroxy-2-(5-methylpyridin-3-yl)-1,4-dihydropyrimidin-4-one]	0.01 to 10
COc1ccccc1C1CCN(C(=O)c2c(O)n(-c3c(OC)cccc3OC)c(-c3cncc(C)c3)nc2=O)C1 (single isomer, unassigned) [Example 234, 1-(2,6-dimethoxyphenyl)-6-hydroxy-5-[3-(2-methoxyphenyl)pyrrolidine-1-carbonyl]-2-(5-methylpyridin-3-yl)-1,4-dihydropyrimidin-4-one]	0.01 to 10
COc1cccc(OC)c1-n1c(-c2cccc(C)n2)nc(=O)c(C(=O)N2CCC(c3ncc(F)cc3F)C2)c1O (single isomer, unassigned) [Example 235, 5-[3-(3,5-difluoropyridin-2-yl)pyrrolidine-1-carbonyl]-1-(2,6-dimethoxyphenyl)-6-hydroxy-2-(6-methylpyridin-2-yl)-1,4-dihydropyrimidin-4-one]	0.01 to 10
COc1cccc(OC)c1-n1c(-c2cccc(C)n2)nc(=O)c(C(=O)N2CCC(c3ccccc3F)C2)c1O (single isomer, unassigned) [Example 236, 1-(2,6-dimethoxyphenyl)-5-[3-(2-fluorophenyl)pyrrolidine-1-carbonyl]-6-hydroxy-2-(6-methylpyridin-2-yl)-1,4-dihydropyrimidin-4-one]	0.01 to 10
COc1cccc(OC)c1-n1c(-c2cccc(Cl)c2)nc(=O)c(C(=O)N2CCC(c3ccccc3C#N)C2)c1O (single isomer, unassigned) [Example 237, 2-{1-[2-(3-chlorophenyl)-1-(2,6-dimethoxyphenyl)-6-hydroxy-4-oxo-1,4-dihydropyrimidine-5-carbonyl]pyrrolidin-3-yl}benzonitrile]	0.01 to 10
COc1cccc(OC)c1-n1c(-c2cc(C)ccn2)nc(=O)c(C(=O)N2CCC(c3ccccc3F)C2)c1O (single isomer, unassigned) [Example 239, 1-(2,6-dimethoxyphenyl)-5-[3-(2-fluorophenyl)pyrrolidine-1-carbonyl]-6-hydroxy-2-(4-methylpyridin-2-yl)-1,4-dihydropyrimidin-4-one]	0.01 to 10
COc1cccc(OC)c1-n1c(-c2cccc(C)c2)nc(=O)c(C(=O)N2CCC(c3ccccc3C#N)C2)c1O (single isomer, unassigned) [Example 242, 2-{1-[1-(2,6-dimethoxyphenyl)-6-hydroxy-2-(3-methylphenyl)-4-oxo-1,4-dihydropyrimidine-5-carbonyl]pyrrolidin-3-yl}benzonitrile]	0.01 to 10
COc1cccc(OC)c1-n1c(-c2cncc(Cl)c2)nc(=O)c(C(=O)N2CCC(c3ccccc3C#N)C2)c1O (single isomer, unassigned) [Example 243, 2-{1-[2-(5-chloropyridin-3-yl)-1-(2,6-dimethoxyphenyl)-6-hydroxy-4-oxo-1,4-dihydropyrimidine-5-carbonyl]pyrrolidin-3-yl}benzonitrile]	0.01 to 10
COc1cccc(-c2nc(=O)c(C(=O)N3CCC(c4ncccc4F)C3)c(O)n2-c2c(OC)cccc2OC)c1 (single isomer, unassigned) [Example 245, 1-(2,6-dimethoxyphenyl)-5-[3-(3-fluoropyridin-2-yl)pyrrolidine-1-carbonyl]-6-hydroxy-2-(3-methoxyphenyl)-1,4-dihydropyrimidin-4-one]	0.01 to 10
COc1cccc(OC)c1-n1c(-c2ccn(C)n2)nc(=O)c(C(=O)N2CCC(c3c(F)cccc3F)C2)c1O (single isomer, unassigned) [Example 251, 5-[3-(2,6-difluorophenyl)pyrrolidine-1-carbonyl]-1-(2,6-dimethoxyphenyl)-6-hydroxy-2-(1-methyl-1H-pyrazol-3-yl)-1,4-dihydropyrimidin-4-one]	0.01 to 10

The next lines start with the values.

EC50 [nM]	Structure (SMILES)
0.01 to 10	COc1cccc(OC)c1-n1c(CC2CC2)nc(=O)c(C(=O)N2CCC(c3ccc(Cl)cc3)C2)c1O (single isomer, unassigned) [Example 228, 5-[3-(4-chlorophenyl)pyrrolidine-1-carbonyl]-2-(cyclopropylmethyl)-1-(2,6-dimethoxyphenyl)-6-hydroxy-1,4-dihydropyrimidin-4-one]
10 to 100	COc1cccc(OC)c1-n1c(CC2CC2)nc(=O)c(C(=O)N2CCC(c3ccncc3)C2)c1O (single isomer, unassigned) [Example 230, 2-(cyclopropylmethyl)-1-(2,6-dimethoxyphenyl)-6-hydroxy-5-[3-(pyridin-4-yl)pyrrolidine-1-carbonyl]-1,4-dihydropyrimidin-4-one]
10 to 100	COc1cccc(OC)c1-n1c(Cc2ccc(F)cc2)nc(=O)c(C(=O)N2CCC(c3ccccc3F)C2)c1O (single isomer, unassigned) [Example 231, 1-(2,6-dimethoxyphenyl)-2-[(4-fluorophenyl)methyl]-5-[3-(2-fluorophenyl)pyrrolidine-1-carbonyl]-6-hydroxy-1,4-dihydropyrimidin-4-one]
0.01 to 10	COc1cccc(OC)c1-n1c(-c2cncc(C)c2)nc(=O)c(C(=O)N2CCC(c3ccccc3F)C2)c1O (single isomer, unassigned) [Example 233, 1-(2,6-dimethoxyphenyl)-5-[3-(2-fluorophenyl)pyrrolidine-1-carbonyl]-6-hydroxy-2-(5-methylpyridin-3-yl)-1,4-dihydropyrimidin-4-one]
0.01 to 10	COc1cccc(OC)c1-n1c(-c2cccc(Cl)c2)nc(=O)c(C(=O)N2CCC(c3ncc(F)cc3F)C2)c1O (single isomer, unassigned) [Example 238, 2-(3-chlorophenyl)-5-[3-(3,5-difluoropyridin-2-yl)pyrrolidine-1-carbonyl]-1-(2,6-dimethoxyphenyl)-6-hydroxy-1,4-dihydropyrimidin-4-one]
0.01 to 10	COc1cccc(OC)c1-n1c(-c2cccc(C)c2)nc(=O)c(C(=O)N2CCC(c3c(F)cccc3F)C2)c1O (single isomer, unassigned) [Example 241, 5-[3-(2,6-difluorophenyl)pyrrolidine-1-carbonyl]-1-(2,6-dimethoxyphenyl)-6-hydroxy-2-(3-methylphenyl)-1,4-dihydropyrimidin-4-one]
0.01 to 10	COc1cccc(OC)c1-n1c(-c2cccc(C)c2)nc(=O)c(C(=O)N2CCC(c3ncc(F)cc3F)C2)c1O (single isomer, unassigned) [Example 244, 5-[3-(3,5-difluoropyridin-2-yl)pyrrolidine-1-carbonyl]-1-(2,6-dimethoxyphenyl)-6-hydroxy-2-(3-methylphenyl)-1,4-dihydropyrimidin-4-one]
0.01 to 10	COc1cccc(-c2nc(=O)c(C(=O)N3CCC(c4ncc(F)cc4F)C3)c(O)n2-c2c(OC)cccc2OC)c1 (single isomer, unassigned) [Example 246, 5-[3-(3,5-difluoropyridin-2-yl)pyrrolidine-1-carbonyl]-1-(2,6-dimethoxyphenyl)-6-hydroxy-2-(3-methoxyphenyl)-1,4-dihydropyrimidin-4-one]
0.01 to 10	COc1cccc(OC)c1-n1c(-c2cncc(Cl)c2)nc(=O)c(C(=O)N2CCC(c3c(F)cccc3F)C2)c1O (single isomer, unassigned) [Example 247, 2-(5-chloropyridin-3-yl)-5-[3-(2,6-difluorophenyl)pyrrolidine-1-carbonyl]-1-(2,6-dimethoxyphenyl)-6-hydroxy-1,4-dihydropyrimidin-4-one]
0.01 to 10	COc1cccc(OC)c1-n1c(-c2cnn(C)c2)nc(=O)c(C(=O)N2CCC(c3c(F)cccc3F)C2)c1O (single isomer, unassigned) [Example 249, 5-[3-(2,6-difluorophenyl)pyrrolidine-1-carbonyl]-1-(2,6-dimethoxyphenyl)-6-hydroxy-2-(1-methyl-1H-pyrazol-4-yl)-1,4-dihydropyrimidin-4-one]
0.01 to 10	COc1cccc(OC)c1-n1c(-c2ccc(C)nc2)nc(=O)c(C(=O)N2CCC(c3c(F)cccc3F)C2)c1O (single isomer, unassigned) [Example 252, 5-[3-(2,6-difluorophenyl)pyrrolidine-1-carbonyl]-1-(2,6-dimethoxyphenyl)-6-hydroxy-2-(6-methylpyridin-3-yl)-1,4-dihydropyrimidin-4-one]
